Data reported in US20250171405A1, “PYRAZOLYL COMPOUNDS AS KV7 CHANNEL ACTIVATORS” (Biohaven Therapeutics Ltd., priority 2022, published 2025).

molecular target: T1, Kv7.2/7.3 (Homo sapiens, UniProt O43525+O43526); assay: Kv7.2/7.3 Thallium Flux Assay (FluxOR II Green); assay type: cell-based; settings: single concentration of 10 μM; fluorescence at 90 sec normalized to positive control (retigabine, 30 μM); hKv7.2/7.3 cell line
T1 construct: Kv7.3 is constitutive and Kv7.2 is tetracycline-induced
Text: The Thallium Flux Assay is used as a surrogate indicator of potassium channel activity.
The experimental protocol was adapted from the FluxOR™ II Green Potassium Ion Channel Assay User Guide (Pub. No. MAN0016084, Invitrogen). Conditions were optimized for the Kv7.2/7.3 cell line.
Cell Line: The hKV7.2/7.3 cell line was obtained from Chantest (cat. #CT6147).
Cell Culture: Kv7.2/7.3 cells were maintained in a media containing DMEM/F12; 50/50 (Fisher 11-330), 10% Fetal Bovine Serum (FBS) (Fisher 26-140), 100 units/mL Penicillin-Streptomycin (Fisher 15-140), 0.005 mg/ml Blasticidin (InvivoGen ant-bl-1), 0.5 mg/mL Geneticin (InvivoGen ant-gn-5), and 0.1 mg/mL Zeocin (Fisher R25001). One day prior to experimentation, cells were plated in 96 well clear bottom plates (Corning cat. #353219) in a media without Blasticidin, Geneticin, or Zeocin. In this cell line Kv7.3 channel expression is controlled by a constitutive promoter. Kv7.2 channel expression was induced by adding tetracycline (Sigma T7660) at a final concentration of 10 ng/mL overnight in a cell culture incubator at 37° C. and 5% CO2. On the day of assay, the cell culture medium in the 96-well plates was replaced by assay buffer containing the thallium-sensitive fluorescent sensor, FluxOR II Green prepared according to manufacturer's instructions. The 96-well plates were then incubated for 1 h at 37° C. Following the incubation, the FluxOR II Green-containing solution was replaced with extracellular solution.
Test Compound Plates: The test compound is diluted in a mixture of 0.1% DMSO/extracellular solution at a single concentration of 10 μM. Dilutions were made on a Biomek NXP (BECKMAN COULTER). Extracellular solution contained (in mM: 145 NaCl, 4 KCl, 2 CaCl2), 1 MgCl2, 10 HEPES, and 10 Glucose, pH 7.4)
Measurement and data analysis: Thallium-flux-mediated changes in intracellular fluorescence were made using a plate reader (Enspire, Perkin Elmer) set with an excitation wavelength of 475 nm and an emission wavelength of 530 nm. After a 15 sec baseline measurement, the stimulus buffer containing thallium and potassium was added to the 96-well plate containing FluxOR II Green-loaded cells and test compounds. Fluorescence values at 90 sec were normalized to the positive control (retigabine, 30 μM) and test compound activities were assigned categories according to the formula: “No Activity <0.15, “+” Moderate Activity 0.15-0.7, and “++” High Activity >0.7.

Kv7.2/7.3 Activity	SMILES
+ (“+” Moderate Activity 0.15-0.7)	C[C@@H](C(=O)Nc1n[nH]c(-c2ccc(Cl)s2)c1C1CCC1)C1(C(F)(F)F)CC1 (stereo in doubt) [Compound 5, N-(5-(5-chlorothiophen-2-yl)-4-cyclobutyl-1H-pyrazol-3-yl)-2-(1-(trifluoromethyl)cyclopropyl)propanamide]
++ (“++” High Activity ≥0.7)	O=C(CC1CC(F)(F)C1)Nc1n[nH]c(-c2ccc(F)cc2)c1C1CCC1 [Compound 1, N-(4-cyclobutyl-5-(4-fluorophenyl)-1H-pyrazol-3-yl)-2-(3,3-difluorocyclobutyl)acetamide]
++ (“++” High Activity ≥0.7)	O=C(Nc1n[nH]c(-c2ccc(Cl)s2)c1C1CCC1)C1CC(F)(F)C1 [Compound 2, N-(5-(5-chlorothiophen-2-yl)-4-cyclobutyl-1H-pyrazol-3-yl)-3,3-difluorocyclobutane-1-carboxamide]
− (“−” No Activity <0.15)	O=C(Nc1n[nH]c(-c2ccc(Cl)s2)c1C1CCC1)C1CSC1 [Compound 3, N-(5-(5-chlorothiophen-2-yl)-4-cyclobutyl-1H-pyrazol-3-yl)thietane-3-carboxamide]
++ (“++” High Activity ≥0.7)	O=C(Nc1n[nH]c(-c2ccc(Cl)s2)c1C1CCC1)C1CC(C(F)(F)F)C1 (stereo not shown) [Compound 4, N-(5-(5-chlorothiophen-2-yl)-4-cyclobutyl-1H-pyrazol-3-yl)-3-(trifluoromethyl)cyclobutane-1-carboxamide]
++ (“++” High Activity ≥0.7)	O=C(Nc1n[nH]c(-c2ccc(F)cc2)c1C1CCC1)C1CC(F)(F)C1 [Compound 6, N-(4-cyclobutyl-5-(4-fluorophenyl)-1H-pyrazol-3-yl)-3,3-difluorocyclobutane-1-carboxamide]
++ (“++” High Activity ≥0.7)	O=C(Nc1[nH]nc(C2CC(F)(F)C2)c1C1CCC1)OC1CC(F)(F)C1 [Compound 7, 3,3-difluorocyclobutyl (4-cyclobutyl-3-(3,3-difluorocyclobutyl)-1H-pyrazol-5-yl)carbamate]
